# Data from US20260217672A1, “BENZAMIDE COMPOUNDS FOR TREATMENT OF BACTERIAL INFECTIONS” (Hoffmann-La Roche Inc., priority 2022, published 2026).
# How the values were obtained:
# [1] = test system: Escherichia coli ATCC 25922; experiment: Minimal Inhibitory Concentration (MIC) broth dilution assay; type: cell-based; details: ATCC25922, 20 h, read-out: MIC Escherichia coli ATCC 25922
# Method in brief: (§1)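 Broth dilution MIC in cation-adjusted Mueller Hinton broth, final inoculum 5×10^5 CFU/mL, serial 2-fold compound dilutions from DMSO stocks. Plates incubated 20 hours at 35° C. in ambient air; MIC read visually as lowest concentration inhibiting visible growth.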
# [2] = test system: Klebsiella pneumonia ATCC 43816; experiment: as above; type: cell-based; details: Klebsiella pneumoniae, ATCC43816, 20 h, read-out: MIC Klebsiella pneumoniae ATCC43816
# Method in brief: as §1
# [3] = Human microsome stability assay; type: in vitro ADME; details: 1 μM test compound, 0.5 mg/mL liver microsomal protein, NADPH regenerating system, 37° C.; <7 low, 7-16.2 medium, >16.2 high
# Protocol: The human microsomal stability assay is used for early assessment of metabolic stability of a test compound in human liver microsomes.
# Human liver microsomes (Cat.NO.: 452117, Corning, USA) were pre-incubated with test compound for 10 minutes at 37° C. in 100 mM potassium phosphate buffer, pH 7.4. The reactions were initiated by adding NADPH regenerating system. The final incubation mixtures contained 1 μM test compound, 0.5 mg/mL liver microsomal protein, 1 mM MgCl2, 1 mM NADP, 1 unit/mL isocitric dehydrogenase and 6 mM isocitric acid in 100 mM potassium phosphate buffer, pH 7.4. After incubation times of 0, 3, 6, 9, 15 and 30 minutes at 37° C., 300 μL of cold acetonitrile (including internal standard) was added to 100 μL incubation mixture to terminate the reaction. Following precipitation and centrifugation, the amount of compound remaining in the samples were determined by LC-MS/MS. Controls of no NADPH regenerating system at zero and 30 minutes were also prepared and analyzed. […] (Human microsome clearance: <7 mL/min/kg (low); 7-16.2 mL/min/kg (medium); >16.2 mL/min/kg (high))
# LPS synthesis pathway = details: Bioorganic Chemistry 102 (2020) 104055; cited from earlier work
# [4] = test system: efflux-deficient E. coli strains; details: Bioorganic Chemistry 102 (2020) 104055; cited from earlier work
Compound,MIC [1] [mg/L],MIC [2] [mg/L],Clearance of Human microsome [3] [L/h/kg],LPS synthesis pathway inhibition activity (LPS synthesis pathway),antibiotic activity against efflux-deficient E. coli strains [4]
"NCCCNCc1ccc(C(=O)Nc2ccc(S(=O)(=O)N3CCN(c4cc(C(F)(F)F)cc(Cl)n4)CC3)cc2)cc1 [Example 001, 4-[(3-Aminopropylamino)methyl]-N-[4-[4-[6-chloro-4-(trifluoromethyl)-2-pyridyl]piperazin-1-yl]sulfonylphenyl]benzamide]",0.51,1.5,0.372,–,–
"NCCCNCc1ccc(C(=O)Nc2ccc(S(=O)(=O)N3CCN(c4nccc(C(F)(F)F)n4)CC3)cc2)cc1 [Example 012, 4-[(3-Aminopropylamino)methyl]-N-[4-[4-[4-(trifluoromethyl)pyrimidin-2-yl]piperazin-1-yl]sulfonylphenyl]benzamide]",1.8,3.6,0.372,–,–
"N#Cc1cc(Cl)nc(N2CCN(S(=O)(=O)c3ccc(NC(=O)c4cccc(CNCCCN)c4)cc3)CC2)c1 [Example 020, 3-[(3-Aminopropylamino)methyl]-N-[4-[4-(6-chloro-4-cyano-2-pyridyl)piperazin-1-yl]sulfonylphenyl]benzamide]",1.2,2.5,0.528,–,–
"O=C(c1cnn2cccnc12)N1CCc2cc(S(=O)(=O)N3CCN(c4cc(C(F)(F)F)cc(Cl)n4)CC3)ccc21 [Example 034, [5-[4-[6-Chloro-4-(trifluoromethyl)-2-pyridyl]piperazin-1-yl]sulfonylindolin-1-yl]-pyrazolo[1,5-a]pyrimidin-3-yl-methanone]",0.92,0.92,0.372,–,–
O=C(C1=NOC2(CCCNC2)C1)N1CCc2cc(S(=O)(=O)N3CCN(c4cc(C(F)(F)F)cc(Cl)n4)CC3)ccc21 (stereo not drawn) [Example 039],–,–,0.564,–,–
"O=C(CNCCO)N1CCc2cc(S(=O)(=O)N3CCN(c4cc(C(F)(F)F)cc(Cl)n4)CC3)ccc21 [Example 041, 1-[5-[4-[6-Chloro-4-(trifluoromethyl)-2-pyridyl]piperazin-1-yl]sulfonylindolin-1-yl]-2-(2-hydroxyethylamino)ethanone]",1,8.3,0.372,–,–
"CC(=O)Oc1ccc(C(=O)N2CCc3cc(S(=O)(=O)N4CCN(c5cc(C(F)(F)F)cc(Cl)n5)CC4)ccc32)cc1OC(C)=O [Example 043, [2-Acetoxy-4-[5-[4-[6-chloro-4-(trifluoromethyl)-2-pyridyl]piperazin-1-yl]sulfonylindoline-1-carbonyl]phenyl]acetate]",4.2,2.1,0.372,–,–
"NCCCN1CCN(c2cccc(C(=O)Nc3ccc(S(=O)(=O)N4CCN(c5cc(C(F)(F)F)cc(Cl)n5)CC4)cc3)c2)CC1 [Example 068, 3-[4-(3-Aminopropyl)piperazin-1-yl]-N-[4-[4-[6-chloro-4-(trifluoromethyl)-2-pyridyl]piperazin-1-yl]sulfonylphenyl]benzamide]",1,2.1,0.372,–,–
"O=C(Nc1ccc(S(=O)(=O)N2CCN(c3cc(C(F)(F)F)cc(Cl)n3)CC2)cc1)c1cccc(CNCCCN2CCNCC2)c1 [Example 078, N-[4-[4-[6-chloro-4-(trifluoromethyl)-2-pyridyl]piperazin-1-yl]sulfonylphenyl]-3-[(3-piperazin-1-ylpropylamino)methyl]benzamide]",1.4,5.7,0.372,–,–
"O=C(Nc1ccc(S(=O)(=O)N2CCN(c3cc(C(F)(F)F)cc(Cl)n3)CC2)cc1)c1cccc(CNCCCN(CCO)CCO)c1 [Example 080, 3-[[3-[Bis(2-hydroxyethyl)amino]propylamino]methyl]-N-[4-[4-[6-chloro-4-(trifluoromethyl)-2-pyridyl]piperazin-1-yl]sulfonylphenyl]benzamide]",1.4,2.9,–,–,–
"COc1ccc(CNCCCC2CCNCC2)cc1C(=O)Nc1ccc(S(=O)(=O)N2CCN(c3cc(C(F)(F)F)cc(Cl)n3)CC2)cc1 [Example 081, N-[4-[4-[6-chloro-4-(trifluoromethyl)-2-pyridyl]piperazin-1-yl]sulfonylphenyl]-2-methoxy-5-[[3-(4-piperidyl)propylamino]methyl]benzamide]",1.5,2.9,–,–,–
"NCC12CC1CN(Cc1cccc(C(=O)Nc3ccc(S(=O)(=O)N4CCN(c5cc(C(F)(F)F)cc(Cl)n5)CC4)cc3)c1)C2 (stereo not drawn) [Example 082, 3-[[1-(Aminomethyl)-3-azabicyclo[3.1.0]hexan-3-yl]methyl]-N-[4-[4-[6-chloro-4-(trifluoromethyl)-2-pyridyl]piperazin-1-yl]sulfonylphenyl]benzamide]",0.69,1.4,–,–,–
"O=C1NC(CNCc2cccc(C(=O)Nc3ccc(S(=O)(=O)N4CCN(c5cc(C(F)(F)F)cc(Cl)n5)CC4)cc3)c2)CO1 (stereo not drawn) [Example 084, N-[4-[4-[6-chloro-4-(trifluoromethyl)-2-pyridyl]piperazin-1-yl]sulfonylphenyl]-3-[[(2-oxooxazolidin-4-yl)methylamino]methyl]benzamide]",4.8,4.8,–,–,–
"COc1ccc(CN2CCC3CNCC32)cc1C(=O)Nc1ccc(S(=O)(=O)N2CCN(c3cc(C(F)(F)F)cc(Cl)n3)CC2)cc1 (stereo not drawn) [Example 087, 5-(3,3a,4,5,6,6a-Hexahydro-2H-pyrrolo[3,4-b]pyrrol-1-ylmethyl)-N-[4-[4-[6-chloro-4-(trifluoromethyl)-2-pyridyl]piperazin-1-yl]sulfonylphenyl]-2-methoxy-benzamide]",1.2,2.5,–,–,–
"NCCCNCc1ccccc1C(=O)Nc1ccc(S(=O)(=O)N2CCN(c3cc(C(F)(F)F)cc(Cl)n3)CC2)cc1 [Example 088, 2-[(3-Aminopropylamino)methyl]-N-[4-[4-[6-chloro-4-(trifluoromethyl)-2-pyridyl]piperazin-1-yl]sulfonylphenyl]benzamide]",1.3,2.6,–,–,–
"CC(=O)N1CCc2cc(S(=O)(=O)N3CCN(c4cc(Cl)cc(C(F)(F)F)c4)CC3)ccc21 [Example F-1, reference compound]",> 24,> 24,0.84,LPS synthesis pathway inhibition activity,antibiotic activity
